Assay results taken from PMC9599826, “Selecting Multitarget Peptides for Alzheimer’s Disease” (Biomolecules, 2022).

Tested on: human TLR4
Test: TLR4 activation, HEK-Blue hTLR4 SEAP reporter cells
Format: cell-based
Conditions: 24 h, SEAP production
Description: The HEK-Blue hTLR4 cells were used for these experiments as previously described. Cells were cultured in complete growth medium: phenol red-free DMEM high glucose medium supplemented with 1 mM sodium pyruvate, 10% heat-inactivated FBS, 50 U/mL penicillin, 50 μg/mL streptomycin, 1X Glutamax, 100 μg/mL Normocin, and 1X HEK-Blue Selection. All stimulation assays were performed on cells that were passaged 3 to 15 times. Cells were carefully rinsed once with ice-cold PBS to remove residual FBS. Then, 2 mL of pre-warmed PBS was added, and dishes were incubated at 37 °C for 5 min to promote cell detachment. Cells were fully detached from plates with gentle tapping, collected, and centrifuged at 52× g for 5 min. […] In another set of experiments, we determined the effects of peptide candidates on the activation of hTLR4 by S100A9. […] Secreted alkaline phosphatase (SEAP) production was measured in each challenged well by transferring 20 μL of medium to a fresh 96-well plate containing 200 μL of Quanti-Blue detection medium. […] The Quanti-Blue plate was developed at 37 °C, 5% CO2, for 3 h followed by OD recordings at 630 nm using the Synergy2 microplate reader and Gen5 software. […]
Figure 6 TLR4 activation by S100A9 and effects of peptide candidates. (A) SEAP production was measured in cell medium following 24 h incubation with indicated concentrations of ligands. […]

Substance: S100A9: Recombinant human calcium binding protein S100A9 (C-terminus 8-His tag); known agonist of TLR4, positive control
- concentration giving maximum receptor stimulation: 50 nM
- EC50 (read-out: half maximal effective concentration (EC50) for TLR4 activation): 0.7 nM
